Experimental data published in patent publication US20230293407A1, “Compositions Comprising (Bio)-Alkanediols with Antimicrobials for Product Protection” (Symrise AG, priority 2020, published 2023).

What was measured:
[1] = maximum water solubility of alkanediols, visual observation; format: physicochemical; details: ambient temperature after 24 h storage at 5° C.
Source text: The water solubility of a substance is the saturation mass concentration of the substance in water at a given temperature. The determination of the solubility in water relates to essentially pure substances which are stable in water and not volatile. The determination of the water solubility of the alkanediols is further described in the following Example 2.
For the determination of the maximum water solubility of an alkanediol, water and different concentrations of the respective alkanediol were blended by stirring. […] The determination of whether the alkanediol has dissolved in water is based entirely on visual observation.

[2] = tested on: Aspergillus brasiliensis; assay: preservation efficacy test (PET), European Pharmacopoeia 5.1.3; format: cell-based; details: for number of microorganisms, 28 days / number of microorganisms, 14 days: Aspergillus brasiliensis (AB)
[3] = tested on: Escherichia coli; assay: as above; format: cell-based; details: for number of microorganisms, 2 days / number of microorganisms, 7 days / number of microorganisms, 14 days / number of microorganisms, 28 days: Escherichia coli (EC)
[4] = tested on: Staphylococcus aureus; assay: as above; format: cell-based
[5] = tested on: Candida albicans; assay: as above; format: cell-based
[6] = tested on: yeast; assay: preservation efficacy test (PET), overview of the effect against yeast; format: cell-based, Candida albicans; details: PET in a shampoo formulation, result in words on Table 8
[7] = tested on: Pseudomonas aeruginosa; assay: preservation efficacy test (PET), European Pharmacopoeia 5.1.3; format: cell-based; details: for PA germ count, 2 days / PA germ count, 7 days / PA germ count, 14 days / PA germ count, 28 days: substance at given % in test formulation
[8] = PET, Staphylococcus aureus (SA), 7 days after inoculation
[9] = PET, Staphylococcus aureus (SA), 14 days after inoculation
[10] = PET, Staphylococcus aureus (SA), 28 days after inoculation
[11] = PET, Candida albicans (CA), 28 days after inoculation
[12] = PET in shampoo, Staphylococcus aureus (SA), 14 days after inoculation
[13] = PET in shampoo, Staphylococcus aureus (SA), 28 days after inoculation
[14] = PET in shampoo, Candida albicans (CA), 28 days after inoculation
[15] = 14 days after inoculation, substance at given % in test formulation
[16] = 28 days after inoculation, substance at given % in test formulation
[17] = 2 days after inoculation, o/w emulsion (Table 53)
[18] = 7 days after inoculation, o/w emulsion (Table 53)
[19] = 7 days after inoculation, substance at given % in test formulation
[20] = 14 days after inoculation, o/w emulsion (Table 53)
[21] = 28 days after inoculation, o/w emulsion (Table 53)

CCCCCCC(O)CO (stereo not drawn) [Hydrolite ® 8]
Maximum solubility in water [1]: 0.5 % by weight

CCCCCCCC(O)CO (stereo not drawn) [1,2-Nonanediol]
number of microorganisms, 28 days ([2]; PET, 28 days after inoculation): 900.000 | number of microorganisms, 2 days ([3]; PET, 2 days after inoculation): 6.700 | number of microorganisms, 7 days ([3]; PET, 7 days after inoculation): 1 | number of microorganisms, 14 days ([3]; PET, 14 days after inoculation): 1 | number of microorganisms, 28 days ([3]; PET, 28 days after inoculation): 1 | Maximum solubility in water [1]: 0.1 % by weight | number of microorganisms, 2 days ([4]; PET, Staphylococcus aureus (SA), 2 days after inoculation): 2.300 | number of microorganisms, 7 days [4, 8]: 1 | number of microorganisms, 14 days [4, 9]: 1 | number of microorganisms, 28 days [4, 10]: 1 | number of microorganisms, 7 days ([5]; PET, Candida albicans (CA), 7 days after inoculation): 120.000 | number of microorganisms, 14 days ([5]; PET, Candida albicans (CA), 14 days after inoculation): 890 | number of microorganisms, 28 days [5, 11]: 1

CCCCC(O)CO (stereo not drawn) [Hydrolite ® 6]
Maximum solubility in water [1]: 50 % by weight

CCCCCCC(O)C(C)O (stereo not drawn) [2,3-nonanediol]
number of microorganisms, 14 days ([2]; PET in shampoo, 14 days after inoculation, listed as 0,1% 2,3 Nonanediol): 680.000 | number of microorganisms, 28 days ([2]; PET in shampoo, 28 days after inoculation, listed as 0,1% 2,3 Nonanediol): 530.000 | number of microorganisms, 14 days ([2]; PET, 14 days after inoculation): 890.000 | number of microorganisms, 2 days ([3]; PET, 2 days after inoculation): 810.000 | number of microorganisms, 7 days ([3]; PET, 7 days after inoculation): 27.000 | number of microorganisms, 14 days ([3]; PET, 14 days after inoculation): 1.100 | number of microorganisms, 28 days ([3]; PET, 28 days after inoculation): 1 | Maximum solubility in water [1]: 0.3 % by weight | antimicrobial efficacy against yeast [6]: antimicrobial efficacy | number of microorganisms, 14 days [4, 12]: 1 | number of microorganisms, 28 days [4, 13]: 1 | number of microorganisms, 7 days [4, 8]: 66.000 | number of microorganisms, 14 days [4, 9]: 1 | number of microorganisms, 28 days [4, 10]: 1 | number of microorganisms, 28 days [5, 14]: 1 | number of microorganisms, 28 days [5, 11]: 970.000

CCCCCC(O)C(C)O (stereo not drawn) [2,3-octanediol]
count at 2 days ([2]; AB, 2 days after inoculation, use concentration in label): 940.000 | count at 7 days ([2]; AB, 7 days after inoculation, use concentration in label): 660.000 | count at 14 days ([2]; AB, 14 days after inoculation, use concentration in label): 820.000 | count at 28 days ([2]; AB, 28 days after inoculation, use concentration in label): 560.000 | number of microorganisms, 14 days ([2]; PET in shampoo, 14 days after inoculation, listed as 0,1% 2,3 Octanediol): 250.000 | count at 2 days ([3]; EC, 2 days after inoculation, use concentration in label): 130.000 | count at 7 days ([3]; EC, 7 days after inoculation, use concentration in label): 19.000 | count at 14 days ([3]; EC, 14 days after inoculation, use concentration in label): 290 | count at 28 days ([3]; EC, 28 days after inoculation, use concentration in label): 18 | number of microorganisms, 28 days ([3]; PET in shampoo, 28 days after inoculation, listed as 0,4% 2,3 Octanediol): 600.000 | number of microorganisms, 2 days ([3]; PET, 2 days after inoculation): 48.000 | number of microorganisms, 7 days ([3]; PET, 7 days after inoculation): 290 | number of microorganisms, 14 days ([3]; PET, 14 days after inoculation): 1 | number of microorganisms, 28 days ([3]; PET, 28 days after inoculation): 1 | Maximum solubility in water [1]: 1.5 % by weight | antimicrobial efficacy against yeast [6]: antimicrobial efficacy | PA germ count, 2 days ([7]; 2 days after inoculation): 1 | PA germ count, 7 days ([7]; 7 days after inoculation): 1 | PA germ count, 14 days ([7]; 14 days after inoculation): 1 | PA germ count, 28 days ([7]; 28 days after inoculation): 1 | count at 2 days ([7]; PA, 2 days after inoculation, use concentration in label): 1 | count at 7 days ([7]; PA, 7 days after inoculation, use concentration in label): 1 | count at 14 days ([7]; PA, 14 days after inoculation, use concentration in label): 1 | count at 28 days ([7]; PA, 28 days after inoculation, use concentration in label): 1 | SA germ count, 14 days [4, 15]: 1 | SA germ count, 28 days [4, 16]: 1 | number of microorganisms, 7 days ([4]; PET in shampoo, Staphylococcus aureus (SA), 7 days after inoculation): 1 | number of microorganisms, 14 days [4, 12]: 1 | number of microorganisms, 28 days [4, 13]: 1 | number of microorganisms, 7 days [4, 8]: 84.000 | number of microorganisms, 14 days [4, 9]: 1 | number of microorganisms, 28 days [4, 10]: 1 | count at 2 days ([4]; SA, 2 days after inoculation, use concentration in label): 520.000 | count at 7 days ([4]; SA, 7 days after inoculation, use concentration in label): 9.300 | count at 14 days ([4]; SA, 14 days after inoculation, use concentration in label): 1 | count at 28 days ([4]; SA, 28 days after inoculation, use concentration in label): 1 | count at 2 days ([5]; CA, 2 days after inoculation, use concentration in label): 660.000 | count at 7 days ([5]; CA, 7 days after inoculation, use concentration in label): 210.000 | count at 14 days ([5]; CA, 14 days after inoculation, use concentration in label): 120.000 | count at 28 days ([5]; CA, 28 days after inoculation, use concentration in label): 11.000 | number of microorganisms, 28 days [5, 14]: 1 | number of microorganisms, 28 days [5, 11]: 390.000

CCCCC(O)C(C)O (stereo not drawn) [2,3-heptanediol]
germ count EC, 2 days [3, 17]: 170.000 | EC germ count, 2 days ([3]; 2 days after inoculation, substance at given % in test formulation): 170.000 | germ count EC, 7 days [3, 18]: 1.600 | EC germ count, 7 days [3, 19]: 1.600 | germ count EC, 14 days [3, 20]: 82 | EC germ count, 14 days [3, 15]: 82 | germ count EC, 28 days [3, 21]: 1 | EC germ count, 28 days [3, 16]: 1 | number of microorganisms, 7 days ([3]; PET in shampoo, 7 days after inoculation, listed as 0,4% 2,3 Heptandiol): 100.000 | number of microorganisms, 14 days ([3]; PET in shampoo, 14 days after inoculation, listed as 0,4% 2,3 Heptandiol): 75.000 | number of microorganisms, 28 days ([3]; PET in shampoo, 28 days after inoculation, listed as 0,4% 2,3 Heptandiol): 380.000 | number of microorganisms, 28 days ([3]; PET, 28 days after inoculation): 1 | Maximum solubility in water [1]: 3.6 % by weight | antimicrobial efficacy against yeast [6]: antimicrobial efficacy | germ count PA, 2 days [7, 17]: 1 | PA germ count, 2 days ([7]; 2 days after inoculation): 1 | germ count PA, 7 days [7, 18]: 1 | PA germ count, 7 days ([7]; 7 days after inoculation): 1 | germ count PA, 14 days [7, 20]: 1 | PA germ count, 14 days ([7]; 14 days after inoculation): 1 | germ count PA, 28 days [7, 21]: 1 | PA germ count, 28 days ([7]; 28 days after inoculation): 1 | germ count SA, 7 days [4, 18]: 790.000 | SA germ count, 7 days [4, 19]: 790.000 | germ count SA, 14 days [4, 20]: 55 | SA germ count, 14 days [4, 15]: 55 | germ count SA, 28 days [4, 21]: 1 | SA germ count, 28 days [4, 16]: 1 | number of microorganisms, 14 days [4, 12]: 1 | number of microorganisms, 28 days [4, 13]: 1 | number of microorganisms, 28 days [4, 10]: 1 | germ count CA, 28 days [5, 21]: 370.000 | CA germ count, 28 days [5, 16]: 370.000 | number of microorganisms, 28 days [5, 14]: 1

CCCC(O)CO (stereo not drawn) [Hydrolite ® 5 green]
Maximum solubility in water [1]: 50 % by weight
